Laboratory results as given in article PMC10600239, “Selective MCL-1 inhibitor ABBV-467 is efficacious in tumor models but is associated with cardiac troponin increases in patients” (Communications Medicine, 2023).
Where “and” joins values, the source holds several entries; their conditions need not be identical. Equal values may be shown once.

Test system: OPM-2 xenografts
Assay: OPM-2 xenograft efficacy (tumor volume, body weight)
Assay type: in vivo, mouse
Details: for Body Weight (g) Day 21, individual animals / Body Weight Day 21, Mean / Body Weight Day 21, Median / Relative to initial body wt., %: mouse, in vivo, iv
Procedure: All animal studies were conducted in accordance with the guidelines approved by the Institutional Animal Care and Use Committees of AbbVie. The research protocol was approved by In Vivo Pharmacology at AbbVie prior to study initiation but was not publicly registered or disclosed. Female C.B-17 SCID-beige mice (AMO-1, OPM-2, NCI-H929, and OCI-AML2 xenografts) and female NSG mice (MV4-11-Red.Fluc systemic) were purchased from Charles River Laboratories (Wilmington, MA). Animals were housed in a light cycle-controlled room with HEPA filtration at 22 °C. Animals had nesting and climbing cage topper as the primary environmental enrichment. Animals were inoculated subcutaneously in the right flank with 5 × 10^6 (AMO-1, OPM-2, NCI-H929, and OCI-AML2) or intravenous (IV) with 5 × 10^6 (MV4-11-Red.Fluc). The inoculation volume (0.2 mL) comprised a 50:50 mixture of cells in growth media and Matrigel (BD Biosciences) for subcutaneous injections and 100% phosphate-buffered saline for IV administration. All cell lines used in this publication were authenticated using IDEXX for STR profiling as well as their IMPACT and human IMPACT panels for pathogen screening. Electronic calipers were used to measure the length and width of each tumor 2 to 3 times per week. Tumor volume was estimated by applying the following equation: volume = length × width^2/2. All groups remained blinded during measurements and dosing; only veterinary staff were aware of group identity. When tumors reached approximately 200 mm^3, mice were randomized by match and distributed into treatment and control groups. All xenograft trials were conducted using 5 to 10 mice per group, and all mice were ear tagged and monitored individually throughout the studies. Any animal with a tumor above 2000 mm^3 or 15% loss in body weight was euthanized and removed from the study. Tumor burden in the systemic MV4-11-Red.Fluc experiment was measured using an IVIS® spectrum from PerkinElmer by taking the total photon flux of the entire dorsal side of an individual mouse. Ten minutes prior to imaging, animals received intraperitoneally 0.2 mL of a 15-mg/mL solution of D-Luciferin (PerkinElmer, Catalog #122799) formulated in 100% phosphate-buffered saline. Animals were anesthetized using 3.5% isoflurane and maintained using 2%. Six days after inoculation, animals were imaged and randomized into vehicle and treatment groups at a total flux of ~1 × 10^8. A background control mouse that was tumor naive but received D-Luciferin was placed in the upper left corner of each image. The total flux from this animal was subtracted from the total flux of each animal present in the image.
For in vivo studies, maximal tumor growth inhibition (TGI) was calculated as the greatest treatment response using the following equation: Maximal TGI = (1 − mean tumor volume of the treated group/mean tumor volume of the vehicle control group) × 100. The tumor growth delay (TGD) percentage was determined as the percentage increase of the median time period for the treatment group to reach an arbitrary tumor volume of 1000 mm^3 relative to the vehicle control group. […] A power analysis was conducted using historical data to determine the number of animals required to yield significance of 0.05 at a 30% difference. There were no animals excluded. Data from experiments in vivo were analyzed using the student’s t-test for TGI values and the Mann–Whitney U test for TGD using Excel and GraphPad Prism. Fisher’s exact test was used to probe significance of differences in response frequency.

[1] = OPM-2 (DSMZ) xenograft, SCID-beige mouse, 25 mg/kg q7dx3 IV, Day 63
[2] = OPM-2 (DSMZ) xenograft, SCID-beige mouse, 25 mg/kg q7dx3 IV, Day 70
[3] = OPM-2 (DSMZ) xenograft, SCID-beige mouse, 25 mg/kg q7dx3 IV, Day 77
[4] = OPM-2 (DSMZ) xenograft, SCID-beige mouse, 25 mg/kg q7dx3 IV, Day 106
[5] = OPM-2 (DSMZ) xenograft, SCID-beige mouse, 25 mg/kg q7dx3 IV, Day 113
[6] = OPM-2 (DSMZ) xenograft, SCID-beige mouse, 25 mg/kg q7dx3 IV, Day 120
[7] = individual animals, 6.25 mg/kg q7dx3 IV, Day 37, OPM-2 (DSMZ) xenograft, SCID-beige mouse, 6.25 mg/kg

Cc1c(Cl)c2c(Cl)c(C)c1-c1c(-c3ccc(F)cc3)sc3ncnc(c13)O[C@@H](C(=O)O)Cc1cc(ccc1OCc1ccnc(-c3ccc(OC[C@H]4COCCO4)cc3)n1)OC[C@@H](CN1CCN(C)CC1)O2 [Compound A-1747745]
Body Weight Day 21, % T/C (mean) (OPM-2 (DSMZ) xenograft, SCID-beige mice, 25 mg/kg q7dx3 IV, Day 21, mean(T)/mean(C)): 105.36%
Body Weight Day 21, % T/C (median) (OPM-2 (DSMZ) xenograft, SCID-beige mice, 25 mg/kg q7dx3 IV, Day 21, median(T)/median(C)): 105.36%
Tumor Volume (mm³) Day 63 (individual animals) [1]: 4 mm³
Tumor Volume Day 63, Mean [1]: 4.00 mm³
Tumor Volume Day 63, Median [1]: 4.00 mm³
Tumor Volume (mm³) Day 70 (individual animals) [2]: 4 mm³
Tumor Volume Day 70, Mean [2]: 4.00 mm³
Tumor Volume Day 70, Median [2]: 4.00 mm³
Tumor Volume (mm³) Day 77 (individual animals) [3]: 4 mm³
Tumor Volume Day 77, Mean [3]: 4.00 mm³
Tumor Volume Day 77, Median [3]: 4.00 mm³
Tumor Volume (mm³) Day 106 (individual animals) [4]: 4 mm³
Tumor Volume Day 106, Mean [4]: 4.00 mm³
Tumor Volume Day 106, Median [4]: 4.00 mm³
Tumor Volume (mm³) Day 113 (individual animals) [5]: 4 mm³
Tumor Volume Day 113, Mean [5]: 4.00 mm³
Tumor Volume Day 113, Median [5]: 4.00 mm³
Tumor Volume (mm³) Day 120 (individual animals) [6]: 4 mm³
Tumor Volume Day 120, Mean [6]: 4.00 mm³
Tumor Volume Day 120, Median [6]: 4.00 mm³
Tumor Volume Day 37, Mean (group mean, 6.25 mg/kg q7dx3 IV, Day 37, OPM-2 (DSMZ) xenograft, SCID-beige mouse): 1067.37 mm³
Tumor Volume Day 37, Mean (group mean, 25 mg/kg q7dx3 IV, Day 37, OPM-2 (DSMZ) xenograft, SCID-beige mouse): 4.00 mm³
Tumor Volume Day 41, Mean (group mean, 25 mg/kg q7dx3 IV, Day 41, SCID-beige mice): 4.00 mm³
Tumor Volume Day 44, Mean (group mean, 25 mg/kg q7dx3 IV, Day 44, SCID-beige mice): 4.00 mm³
Tumor Volume (mm³) Day 86, Mean (group mean, 25 mg/kg q7dx3 IV, OPM-2 (DSMZ) xenograft, SCID-beige mice, Day 86): 4.00 mm³
Tumor Volume (mm³) Day 93, Mean (group mean, 25 mg/kg q7dx3 IV, OPM-2 (DSMZ) xenograft, SCID-beige mice, Day 93): 4.00 mm³
Tumor Volume (mm³) Day 101, Mean (group mean, 25 mg/kg q7dx3 IV, OPM-2 (DSMZ) xenograft, SCID-beige mice, Day 101): 4.00 mm³
Tumor Volume (mm³) Day 51, Mean (group mean, 25 mg/kg q7dx3 IV, OPM-2 (DSMZ) xenograft, SCID-beige mouse, Day 51): 4.00 mm³
Tumor Volume (mm³) Day 57, Mean (group mean, 25 mg/kg q7dx3 IV, OPM-2 (DSMZ) xenograft, SCID-beige mouse, Day 57): 4.00 mm³
Tumor Volume Day 37, Median (group median, 6.25 mg/kg q7dx3 IV, Day 37, OPM-2 (DSMZ) xenograft, SCID-beige mouse): 1120.03 mm³
Tumor Volume Day 37, Median (group median, 25 mg/kg q7dx3 IV, Day 37, OPM-2 (DSMZ) xenograft, SCID-beige mouse): 4.00 mm³
Tumor Volume Day 41, Median (group median, 25 mg/kg q7dx3 IV, Day 41, SCID-beige mice): 4.00 mm³
Tumor Volume Day 44, Median (group median, 25 mg/kg q7dx3 IV, Day 44, SCID-beige mice): 4.00 mm³
Tumor Volume (mm³) Day 86, Median (group median, 25 mg/kg q7dx3 IV, OPM-2 (DSMZ) xenograft, SCID-beige mice, Day 86): 4.00 mm³
Tumor Volume (mm³) Day 93, Median (group median, 25 mg/kg q7dx3 IV, OPM-2 (DSMZ) xenograft, SCID-beige mice, Day 93): 4.00 mm³
Tumor Volume (mm³) Day 101, Median (group median, 25 mg/kg q7dx3 IV, OPM-2 (DSMZ) xenograft, SCID-beige mice, Day 101): 4.00 mm³
Tumor Volume (mm³) Day 51, Median (group median, 25 mg/kg q7dx3 IV, OPM-2 (DSMZ) xenograft, SCID-beige mouse, Day 51): 4.00 mm³
Tumor Volume (mm³) Day 57, Median (group median, 25 mg/kg q7dx3 IV, OPM-2 (DSMZ) xenograft, SCID-beige mouse, Day 57): 4.00 mm³
Mortality Observation Day 37 [7]: GRPX and EUTV (3×)
Tumor Volume (mm³) Day 37 [7]: 830 mm³ and 1099 mm³ and 1199 mm³ and 1141 mm³
Tumor Volume (mm³) Day 37 (individual animals, 25 mg/kg q7dx3 IV, Day 37, OPM-2 (DSMZ) xenograft, SCID-beige mouse): 4 mm³
Tumor Volume (mm³) Day 41 (individual animals, 25 mg/kg q7dx3 IV, Day 41, SCID-beige mice): 4 mm³
Tumor Volume (mm³) Day 44 (individual animals, 25 mg/kg q7dx3 IV, Day 44, SCID-beige mice): 4 mm³
Tumor Volume (mm³) Day 86 (individual animals, 25 mg/kg q7dx3 IV, OPM-2 (DSMZ) xenograft, SCID-beige mice, Day 86): 4 mm³
Tumor Volume (mm³) Day 93 (individual animals, 25 mg/kg q7dx3 IV, OPM-2 (DSMZ) xenograft, SCID-beige mice, Day 93): 4 mm³
Tumor Volume (mm³) Day 101 (individual animals, 25 mg/kg q7dx3 IV, OPM-2 (DSMZ) xenograft, SCID-beige mice, Day 101): 4 mm³
Tumor Volume (mm³) Day 51 (individual animals, 25 mg/kg q7dx3 IV, OPM-2 (DSMZ) xenograft, SCID-beige mouse, Day 51): 4 mm³
Tumor Volume (mm³) Day 57 (individual animals, 25 mg/kg q7dx3 IV, OPM-2 (DSMZ) xenograft, SCID-beige mouse, Day 57): 4 mm³
Body Weight (g) Day 21, individual animals (6.25 mg/kg): 21 g
Body Weight Day 21, Mean (6.25 mg/kg): 21.00 g
Body Weight Day 21, Median (6.25 mg/kg): 21.00 g
Relative to initial body wt., % (6.25 mg/kg): 0.00%
Body Weight (g) Day 21, individual animals (25 mg/kg): 22 g
Body Weight Day 21, Mean (25 mg/kg): 22.13 g
Body Weight Day 21, Median (25 mg/kg): 22.13 g
Relative to initial body wt., % (25 mg/kg): 0.00%
